Laboratory results from ChEMBL document CHEMBL1201861, “Genomics of Drug Sensitity in Cancer screening data, Wellcome Trust Sanger Institute”.

Key:
[1] = system: NCI-H1703; experiment: cells; type: functional, cell-based, Homo sapiens; conditions: Homo sapiens, NCI-H1703;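 also: growth inhibition of NCI-H1703 cells, read out via a cell viability assay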
Description: SANGER: Inhibition of human NCI-H1703 cell growth in a cell viability assay.

[2] = system: G-361; experiment: cells; type: functional, cell-based, Homo sapiens; conditions: Homo sapiens, G-361
[3] = system: TI-73; experiment: cells; type: functional, cell-based; conditions: Homo sapiens;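 also: cell viability assay measuring how much compounds suppress growth of the cultured cell line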
Description: SANGER: Inhibition of human TI-73 cell growth in a cell viability assay.

[4] = system: HCT-15; experiment: cells; type: functional, cell-based, Homo sapiens; conditions: Homo sapiens, HCT-15;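 also: cell viability readout, IC50 reflecting suppression of HCT-15 cell growth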
Description: SANGER: Inhibition of human HCT-15 cell growth in a cell viability assay.

[5] = system: CFPAC-1; experiment: cells; type: functional, cell-based; conditions: Homo sapiens;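 also: cell viability readout used to gauge suppression of CFPAC-1 cell proliferation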
Description: SANGER: Inhibition of human CFPAC-1 cell growth in a cell viability assay.

[6] = system: SW 1116; experiment: cells; type: functional, cell-based; conditions: Homo sapiens;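 also: growth inhibition of SW1116 cells, read out with a cell viability assay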
Description: SANGER: Inhibition of human SW1116 cell growth in a cell viability assay.

[7] = system: YH-13; experiment: cells; type: functional, cell-based; conditions: Homo sapiens;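 also: cell viability readout of growth suppression in the human YH-13 cell line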
Description: SANGER: Inhibition of human YH-13 cell growth in a cell viability assay.

[8] = system: MEL-JUSO; experiment: cells; type: functional, cell-based, Homo sapiens; conditions: Homo sapiens, MEL-JUSO;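 also: growth inhibition of human MEL-JUSO cells, read out with a cell viability assay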
Description: SANGER: Inhibition of human MEL-JUSO cell growth in a cell viability assay.

[9] = system: BALL-1; experiment: cells; type: functional, cell-based; conditions: Homo sapiens;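 also: growth inhibition of BALL-1 cells, read out with a cell viability assay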
Description: SANGER: Inhibition of human BALL-1 cell growth in a cell viability assay.

[10] = system: NBsusSR; experiment: cells; type: functional, cell-based; conditions: Homo sapiens;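 also: growth inhibition of the human cell line, read out with a cell viability assay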
Description: SANGER: Inhibition of human NBsusSR cell growth in a cell viability assay.

[11] = system: SW900; experiment: cells; type: functional, cell-based; conditions: Homo sapiens;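 also: IC50 is the concentration that inhibits SW900 cell growth, measured by a cell viability assay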
Description: SANGER: Inhibition of human SW900 cell growth in a cell viability assay.

[12] = system: NCI-H630; experiment: cells; type: functional, cell-based, Homo sapiens; conditions: Homo sapiens, NCI-H630;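 also: growth inhibition of NCI-H630 cells, read out with a cell viability assay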
Description: SANGER: Inhibition of human NCI-H630 cell growth in a cell viability assay.

[13] = system: RH-18; experiment: cells; type: functional, cell-based; conditions: Homo sapiens, Rh18;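 also: growth inhibition of human RH-18 cells, read out with a cell viability assay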
Description: SANGER: Inhibition of human RH-18 cell growth in a cell viability assay.

[14] = system: D-423MG; experiment: cells; type: functional, cell-based; conditions: Homo sapiens
Description: SANGER: Inhibition of human D-423MG cell growth in a cell viability assay.

[15] = system: NCI-H460; experiment: cells; type: functional, cell-based, Homo sapiens; conditions: Homo sapiens, NCI-H460;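 also: cell viability assay scoring growth inhibition of human NCI-H460 cells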
Description: SANGER: Inhibition of human NCI-H460 cell growth in a cell viability assay.

[16] = system: CHP-134; experiment: SANGER: Inhibition of human CHP-134 cell growth in a cell viability assay.; type: functional, cell-based
[17] = system: HT55; experiment: cells; type: functional, cell-based, Homo sapiens; conditions: Homo sapiens, HT55;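 also: cell viability readout measuring growth inhibition of human HT55 cells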
Description: SANGER: Inhibition of human HT55 cell growth in a cell viability assay.

Row | Compound | IC50 [1] [nM] | IC50 [2] [nM] | IC50 [3] [nM] | IC50 [4] [nM] | IC50 [5] [nM] | IC50 [6] [nM] | IC50 [7] [nM] | IC50 [8] [nM] | IC50 [9] [nM] | IC50 [10] [nM] | IC50 [11] [nM] | IC50 [12] [nM] | IC50 [13] [nM] | IC50 [14] [nM] | IC50 [15] [nM] | IC50 [16] [nM] | IC50 [17] [nM]
1 | CC(=O)O[C@@H]1[C@@H](OC(C)=O)[C@@H](O)[C@H](Oc2c(-c3ccc(O)cc3)oc3cc(O)cc(O)c3c2=O)O[C@H]1C | > 10000 | > 10000 | > 10000 | > 10000 | > 10000 | > 10000 | > 10000 | > 10000 | > 10000 | > 10000 | > 10000 | > 10000 | > 10000 | > 10000 | > 10000 | > 10000 | –
2 | C=CCNC1=C2C[C@@H](C)C[C@H](OC)[C@H](O)[C@@H](C)/C=C(\C)[C@H](OC(N)=O)[C@@H](OC)/C=C\C=C(/C)C(=O)NC(=CC1=O)C2=O [TANESPIMYCIN] | 414 | 227 | 18 | > 1000 | 375 | > 1000 | 57.2 | 44.7 | > 1000 | 373 | > 1000 | > 1000 | > 1000 | > 1000 | 19.7 | > 1000 | > 1000
3 | COc1cc(F)c(F)c(Nc2ccc(I)cc2F)c1NS(=O)(=O)C1(CC(O)CO)CC1 (configuration not stated) | – | – | 1830 | – | > 5000 | > 5000 | 2680 | – | > 5000 | > 5000 | > 5000 | > 5000 | > 5000 | > 5000 | 2520 | > 5000 | 2430
4 | COc1ccc(-c2ccc3c(N4CCOC[C@@H]4C)nc(N4CCOC[C@@H]4C)nc3n2)cc1CO [AZD-8055] | – | – | 457 | – | > 2000 | > 2000 | 549 | – | > 2000 | 170 | 1750 | > 2000 | > 2000 | 1030 | 506 | 1380 | > 2000
5 | O=C1N=C(NCc2cccs2)S/C1=C\c1ccc2ncccc2c1 | – | – | > 5000 | – | > 5000 | > 5000 | 4760 | – | > 5000 | > 5000 | > 5000 | > 5000 | > 5000 | > 5000 | > 5000 | > 5000 | > 5000
